In US11020457B2, “Compositions and methods for protecting the kidney from ischemia reperfusion injury” (University of Virginia Patent Foundation, priority 2013, dated 2021):
Entries after “also recorded” stand apart in the source; their conditions may differ.

Key:
[1] = system: folic acid induced acute kidney injury; assay: Folic acid induced acute kidney injury (data not shown); assay type: in vivo
[2] = system: TKPTS cells; assay: In-vitro hypoxia and re-oxygenation of TKPTS cells, Annexin V/PI flow cytometry; assay type: cell-based, mouse; conditions: 50 μM hepcidin for 24 hours, 1% hypoxia 6 hours, 6 hours re-oxygenation; p<0.005
Experimental: A mouse proximal tubule cell line (TKPTS cells, kindly provided by Dr. E. Bello-Reuss, University of Texas Medical Branch, Galveston, Tex.) was used in these studies. The cells were cultured in advanced DMEM/F12 medium supplemented with glutamine, 7.5% FBS and antibiotics. Cells were grown to 80% confluence and maintained at 37° C. in 5% CO2. All experiments were performed in serum free DMEM/F12 medium for a maximum of 24 hours.
TKPTS cells were subjected to hypoxia using a hypoxic chamber (Stemcell Technologies) for 6 hrs (5% CO2, 1% O2, and 94% N2) followed by re-oxygenation for 6 hrs (5% CO2, 21% 02, and 74% N2). Three culture conditions were set up: 1. Normoxia (which served as the base line control); 2. Hypoxia; and 3. Cells pretreated with 50 μM hepcidin and subjected to hypoxia. Experiments were carried out in serum free advanced DMEM/F12 medium. At the end of re-oxygenation, cells were stained with Annexin V/PI and extent of apoptosis was determined using flow cytometry.
To investigate if hepcidin has a direct anti-apoptotic effect on renal tubular epithelial cells, we subjected murine proximal renal tubular cells (TKPTS) to hypoxia-reoxygenation injury in vitro (34). TKPTS cells were first treated with or without 50 μM hepcidin for 24 hours in 5% serum containing medium. After transferring to serum free medium, the cells were then cultured in 1% hypoxia for 6 hours. […]

[3] = system: hepcidin knockout mice (HAMP−/−); assay: Mild renal IRI in HAMP-/- mice: kidney H-Ferritin and apoptosis (Caspase-3, Bcl-2, TUNEL); assay type: in vivo; conditions: for kidney Caspase-3 expression: HAMP-/- IRI Vs HAMP-/- Hepcidin-IRI, p<0.007, FIG. 7c; for TUNEL-positive cells in the kidney: hepcidin treated HAMP-/- IRI vs HAMP-/- IRI, FIG. 7g; for kidney H-Ferritin levels: hepcidin treated HAMP-/- IRI vs untreated p<0.05, lower than sham p<0.005, FIG. 7a-b
Experimental: (§1) All experiments were performed in accordance with the National Institutes of Health and Institutional Animal Care and Use Guidelines. The Animal Care and Use Committee of the University of Virginia approved all procedures and protocols. C57BL/6 mice from the Jackson Laboratory and hepcidin knockout mice (HAMP−/−), a kind gift from Dr Cindy Roy (John Hopkins University) were used in this study. All experiments were performed on 8-10 weeks old male mice. Kidney ischemia-reperfusion surgery was performed as previously reported (44). The core temperature of the mice was maintained between 34° C. and 36° C. using a heating pad. After anesthetizing the mice (ketamine, 12 mg/ml; atropine, 0.48 mg/ml; xylazine, 24 mg/ml; […] mixture administered per 20 g body weight), bilateral flank incisions were made, both renal pedicles were exposed, and cross-clamped for 26 minutes (severe I/R injury) or 24 minutes (mild I/R injury). After the determined ischemia, clamps were removed, and kidneys were allowed to reperfuse for 24 hours. Ambient postoperative air temperature was maintained between 30° C. and 32° C. until mice had fully recovered. Sham-operated animals underwent bilateral flank incisions without clamping of renal pedicles. Twenty-four hours later, mice were euthanized, and tissues were harvested.
Apoptotic cells in the kidney were detected by TUNEL assay following the manufacturer's protocol (Roche Diagnostics, Mannheim, Germany). Briefly, PLP-fixed kidney sections were immersed in 3% hydrogen peroxide-methanol (10 minutes) and permeabilized with cold 0.1% Triton-X100 and 0.1% […] (2 minutes). DNA fragments in apoptotic cells were then labeled and identified by terminal transferase dUTP conjugated to fluorescein (Roche Diagnostics) for 60 minutes at room temperature in dark. The apoptotic cells were imaged using a Zeiss Axiovert 200 microscope with Apo Tome (Zeiss).
Snap frozen tissue sections were homogenized in Tris-Triton tissue lysis buffer containing complete protease inhibitor cocktail using a Dounce Homogenizer. Membrane fractions were isolated from the whole kidney lysate using membrane isolation kit (Thermo Pierce) to determine ferroportin expression. H-Ferritin was measured in the whole kidney and spleen lysates. Protein content in the homogenate was estimated using the BCA protein estimation kit. Twenty to thirty microgram of protein per sample were loaded on a 10% NuPage Bis-Tris gel under reducing conditions. The resolved proteins were transferred onto a Nitrocellulose membrane (Licor Bioscience) and probed with goat anti-mouse H-Ferritin (Santa Cruz) and rabbit anti-mouse ferroportin (Novus Biologics) antibodies. The primary antibodies were detected with Donkey anti-goat Alexa 800 and goat anti-rabbit Alexa 800 antibodies (LiCor Bioscience). Mouse monoclonal GAPDH and β-Actin (Abcam) were used as the loading controls and detected using Donkey anti Mouse Alexa 680 antibody (LiCor Bioscience). Quantitation of data was performed using densitometry software (Licor Bioscience).
For RNA isolation, frozen tissues were re-suspended in RLT buffer (Qiagen Inc, Valencia, Calif.) and homogenized using TissueLyser system (Qiagen Inc, Valencia, Calif.). Total RNA from tissue homogenate was purified using RNAeasy mini kit (Qiagen Inc, Valencia, Calif.) following manufacturers instructions. 1 μg of RNA was used to synthesize cDNA using the iScript cDNA synthesis kit (Bio-Rad). The cDNA template was mixed with iTAQ SYBR green universal super mix (Bio-Rad) and quantitative PCR was carried out on CFX Connect system (Bio-Rad). Predesigned primers for Caspase-3 and Bcl-2 were purchased from Bio-rad. Glyceraldehyde-3-phosphate dehydrogenase (GAPDH) was amplified in parallel and used as the reference gene in quantification. Data is expressed as the relative gene expression and was calculated using the 2 (−ρρC(T)) method.
WT mice injected with hepcidin had higher levels of H-Ferritin and less apoptotic kidney injury. […]

[4] = system: hepcidin knockout mice (HAMP−/−); assay: Mild renal IRI in HAMP-/- mice: serum iron and tissue non-heme iron; assay type: in vivo; conditions: for serum iron / liver non-heme iron content: HAMP-/- hepcidin-IRI vs untreated IRI p<0.005, vs sham p<0.0005; for serum iron: FIG. 6e; for liver non-heme iron content: FIG. 6f
Experimental: as §1
Serum iron (Abcam), hepcidin (Intrinsic Lifescience) and IL-6 levels (eBioscience) were measured using commercial ELISA kits, as per manufacturers instructions.
Non-heme iron content in tissue was measured using the method described in published literature with slight modifications (60). Briefly, tissues were accurately weighed, finely cut and placed for 20 hours at 65° C. in a solution of 3M HCl/0.61 M trichloroacetic acid. After cooling to room temperature, the acid extract was spun at 12,000 rpm to collect the supernatant. 0.1 mL of the supernatant was incubated with chromogen solution (1.86 mM bathophenanthroline sulfonate/143 mM thioglycollic acid) for 20 minutes, and OD was measured at 535 nm. A standard curve was generated using an iron standard solution (Ricca Iron AA standard) against water as the blank. Non-heme iron content (μg/g) was calculated using the equation described (60).
We measured the serum iron and non-heme iron content in the kidney, spleen and liver of sham, untreated and hepcidin injected HAMP^−/− mice after IRI.

Substance: Mouse hepcidin 25 (DTNFPICIFCCKCCNNSQCGICCKT; listed as Mus musculus)
- protection against folic acid induced acute kidney injury [1]: protective against folic acid induced acute kidney injury
- Annexin V/PI positive cells (apoptosis/necrosis) [2]: significantly lower Annexin V/PI staining compared to untreated cells; also recorded: reduced to levels seen under normoxia
- kidney Bcl-2 expression ([3]; HAMP-/- Hepcidin-IRI Vs HAMP-/- IRI, p<0.005, FIG. 7d): prevented the decrease in Bcl-2 expression; also recorded: higher level of anti apoptotic Bcl2
- kidney Caspase-3 expression [3]: lower transcriptional activation of pro apoptotic Caspase3
- kidney Caspase-3 expression ([3]; listed as hepcidin): almost completely prevented
- TUNEL-positive cells in the kidney [3]: markedly reduced
- TUNEL-positive cells in the kidney ([3]; listed as hepcidin): significantly fewer TUNEL-positive cells
- kidney H-Ferritin levels [3]: significantly higher H ferritin levels
- kidney H-Ferritin levels ([3]; listed as hepcidin): significantly higher than in untreated
- serum iron [4]: significantly reduced serum iron
- serum iron ([4]; listed as hepcidin): significantly lowered serum iron
- liver non-heme iron content [4]: significantly higher non-heme iron
- liver non-heme iron content ([4]; listed as hepcidin): significantly higher than the untreated
- splenic iron content by Prussian blue staining ([4]; hepcidin-treated HAMP-/- mice): qualitative increases in splenic iron content
- non-heme iron content of the spleen and kidneys ([4]; sham, untreated and hepcidin injected HAMP-/- mice after IRI (data not shown)): could not detect quantitative differences
